Experimental data reported in publication PMC6821791, “Phase I Trial of Pyragrel, a Novel Thromboxane Synthetase Inhibitor, to Evaluate the Safety, Tolerability, and Pharmacokinetics in Healthy Volunteers” (Frontiers in Pharmacology, 2019).
Values joined by “and” are separate entries in the source; they are usually repeats but may differ in a detail not shown here. Identical values can stand only once.

What was measured:
[1] = Preliminary pharmacodynamic studies of the metabolites; settings: data not shown
Protocol: Based on the pharmacological activity, the pharmacokinetic characteristics of the metabolites were evaluated in the study.

[2] = system: plasma TXB2 and 6-keto-PG1α; test: Plasma TXB2 and 6-keto-PG1α by ELISA (Part IV); format: in vivo, human; settings: pyragrel 60, 120, 240 mg single i.v. dose; data not shown
Protocol: (§1) Urinary levels of 11-D-HTXB2, the degree of platelet agglutination inhibition (DPAI), and the plasma levels of TXB2 and 6-keto-PG1α are considered effective indicators to confirm the antithrombotic effect of a drug candidate ([Uyama et al., 1985]; [Morio et al., 1993]). Therefore, we determined the inhibitory effect of pyragrel on all these three markers in Part IV after a single 3 h infusion dose of pyragrel (60, 120, or 240 mg). […] Similarly, the plasma levels of TXB2 and 6-keto-PG1α (stable metabolites of TXA2 and PGI2, respectively) were determined by ELISA since the decreased TXB2/6-keto- PG1α ratio indicates platelet aggregation and thrombosis inhibition ([Mizugaki et al., 1999]). […] Actually, levels of plasma TXB2 and 6-keto-PG1α are different between patients with cerebral ischemic and healthy subjects; with the limitation of small size for pharmacodynamic activity evaluation in the study, plus the significant reduction in urinary 11-D-HTXB2 level here, we recommended that a larger sample size, extensive phase II study should be performed in patients to further study the pharmacodynamic characteristic of pyragrel.

[3] = Safety assessment, adverse event monitoring (Parts I-V); format: in vivo, human
Protocol: Safety was assessed using subject interviews and adverse event (AE) monitoring. All subjects received laboratory examinations after termination of drug infusion for 48 or 72 h; the examination items are the same as those listed in the screening process. If clinical abnormalities were present, further follow-ups were required until the laboratory test values or vital sign levels of the abnormal items returned to normal values or stable levels. The clinical significance of abnormal laboratory test values was determined by the physicians.
(§2) The vital signs were analyzed by repeated measures analysis of variance (ANOVA), and laboratory indexes were analyzed by the paired t-test and one-way ANOVA. Comparison within different dose regimens of pyragrel or among different treatments (pyragrel, ozagrel, and placebo) or production of urinary 11-D-HTXB2 among groups was performed with the t-test, and expected values were considered along with the actual situation. Descriptive methods were used to compare the incidence of AE between pyragrel and ozagrel/placebo or in different pyragrel dose regimens; the normal/abnormal changes in laboratory examinations before and after administration were described.

[4] = system: urinary 11-D-HTXB2 (indicator of TXA2 production); test: Urinary 11-D-HTXB2 production by ELISA (Part IV); format: in vivo, human; settings: for Urinary 11-D-HTXB2 (standardized by urine creatinine): Part IV
Protocol: […] […] Production of 11-dehydro-thrombxane B2 (11-D-HTXB2) in urine sample was detected by ELISA method.
as §2
Given that 11-dehydrothromboxane B2 (11-D-HTXB2) is considered a reliable indicator of TXA2 production in humans and several animal models ([Morio et al., 1993]; [Yamanaka et al., 1993]), we preliminarily measured the production of urinary 11-D-HTXB2 as a maker for evaluating the TXA2 inhibition activity of pyragrel in three dose groups (60, 120, or 240 mg) in Part IV. […] ( Table 9 ).

[5] = dog, in vivo; cited from earlier work
[6] = system: platelet agglutination inducted by adenosine diphosphate (ADP) and arachidonic acid (AA); test: Platelet agglutination inducted by ADP and AA (Part IV); format: in vivo, human; settings: single 3 h infusion of pyragrel 60, 120 or 240 mg, data not shown
Protocol: as §1

[7] = system: human umbilical vein endothelial cells (HUVEC); settings: in vitro; cited from earlier work
[8] = Part II, pyragrel 240 mg in 250 ml saline
[9] = Part III, multiple doses of pyragrel 180 mg
[10] = Part IV, pyragrel 60, 120, 240 mg crossover
[11] = Part V, pyragrel 360 mg in 24 h

COc1cc(CCC(=O)O)ccc1OCc1nc(C)c(C)nc1C [BBS]
Antiplatelet and antithrombotic effects [1]: weak

COc1cc(C=CC(=O)[O-])ccc1OCc1nc(C)c(C)nc1C.[Na+] [Pyragrel, sodium pyragrel]
Plasma 6-keto-PG1α [2]: increase
Plasma TXB2 [2]: decreased
AE incidence rate (IR) ([3]; Part I, 36 pyragrel-treated subjects, 8 subjects of ozagrel treatment): 33.3%
AE Type ([3]; Part I, pyragrel 30 mg): DB elevation, palpitation
Number of AEs ([3]; Part I, pyragrel 30 mg): 2
AE Type ([3]; Part I, pyragrel 60 mg): Leucocytes increase, positive urine protein
Number of AEs ([3]; Part I, pyragrel 60 mg): 2
AE Type ([3]; Part I, pyragrel 120 mg): DB elevation
Number of AEs ([3]; Part I, pyragrel 120 mg): 1
AE Type ([3]; Part I, pyragrel 180 mg): DB elevation (2), ventosity
Number of AEs ([3]; Part I, pyragrel 180 mg): 3
AE Type ([3]; Part I, pyragrel 240 mg): APTT extension
Number of AEs ([3]; Part I, pyragrel 240 mg): 2
AE Type ([3]; Part I, pyragrel 300 mg): Lower hemoglobin, total bile acid increase
Number of AEs ([3]; Part I, pyragrel 300 mg): 2
AE Type [3, 8]: DB/TB elevation
Number of AEs [3, 8]: 2
AE incidence rate (IR) ([3]; Part II, pyragrel 240 mg in 250 ml saline, 2/4): 50%
AE Type [3, 9]: DB/TB elevation, alanine aminotransferase elevated, abdominal pain, headache, low blood potassium, urine frequency, fecal OBT+.
Number of AEs [3, 9]: 12
AE Type [3, 10]: Dizziness, TB/DB elevation, transient left tinnitus, double upper arm papules, fatigue
Number of AEs [3, 10]: 8
AE incidence ([3]; Part V, continuous infusion, 1/4): 25.0%
AE Type [3, 11]: DB elevation
Number of AEs [3, 11]: 1
Severe AEs, in words ([3]; Parts I-V): No severe AEs occurred
Number of AEs ([3]; Total, Parts I-V): 35
Incidence of elevation in conjugated bilirubin (DB elevation) ([3]; all parts, 12/68 subjects of pyragrel, 2/8 subjects of ozagrel): 17.6%
Tolerability, in words ([3]; single i.v. infusion up to 300 mg, multiple dose 180 mg, prolonged infusion 360 mg within 24 h): well tolerated
Duration of the inhibitory effect on 11-D-HTXB2 production ([4]; 120- and 240-mg group, P<0.05 vs preadministration): at least 12 h
Urinary 11-D-HTXB2 (standardized by urine creatinine) ([4]; 60 mg/kg group, 0–3 h after administration): 37.83 ± 4.85 pg/mL
Urinary 11-D-HTXB2 (standardized by urine creatinine) ([4]; 60 mg/kg group, 3–4 h after administration): 36.64 ± 4.15 pg/mL
Urinary 11-D-HTXB2 (standardized by urine creatinine) ([4]; 60 mg/kg group, 4–8 h after administration): 35.05 ± 4.51 pg/mL
Urinary 11-D-HTXB2 (standardized by urine creatinine) ([4]; 60 mg/kg group, 8–12 h after administration, 60 mg/kg): 34.77 pg/mL and 34.77 ± 4.16 pg/mL
Urinary 11-D-HTXB2 (standardized by urine creatinine) ([4]; 60 mg/kg group, 12–24 h after administration, 60 mg/kg): 35.17 pg/mL and 35.17 ± 4.63 pg/mL
Urinary 11-D-HTXB2 (standardized by urine creatinine) ([4]; 120 mg/kg group, 0–3 h after administration): 37.06 ± 5.00 pg/mL
Urinary 11-D-HTXB2 (standardized by urine creatinine) ([4]; 120 mg/kg group, 3–4 h after administration): 35.85 ± 4.40 pg/mL
Urinary 11-D-HTXB2 (standardized by urine creatinine) ([4]; 120 mg/kg group, 4–8 h after administration): 33.03 ± 5.00 pg/mL
Urinary 11-D-HTXB2 (standardized by urine creatinine) ([4]; 120 mg/kg group, 8–12 h after administration): 31.45 ± 4.88 pg/mL
Urinary 11-D-HTXB2 (standardized by urine creatinine) ([4]; 120 mg/kg group, 12–24 h after administration): 32.14 ± 5.17 pg/mL
Urinary 11-D-HTXB2 (standardized by urine creatinine) ([4]; 240 mg group, 0–3 h after administration): 36.40 ± 4.68 pg/mL
Urinary 11-D-HTXB2 (standardized by urine creatinine) ([4]; 240 mg group, 3–4 h after administration): 35.37 ± 4.60 pg/mL
Urinary 11-D-HTXB2 (standardized by urine creatinine) ([4]; 240 mg group, 4–8 h after administration): 33.10 ± 4.31 pg/mL
Urinary 11-D-HTXB2 (standardized by urine creatinine) ([4]; 240 mg group, 8–12 h after administration, 240 mg/kg): 30.72 pg/mL and 30.72 ± 4.38 pg/mL
Urinary 11-D-HTXB2 (standardized by urine creatinine) ([4]; 240 mg group, 12–24 h after administration, 240 mg/kg): 31.37 pg/mL and 31.37 ± 3.79 pg/mL
Production of urinary 11-D-HTXB2, effect in words ([4]; single infusion of pyragrel 60, 120 or 240 mg): time- and dose-dependently inhibited
Maximum safe dose [5]: > 12.5 mg/kg/day
Platelet agglutination inducted by ADP and AA [6]: slightly inhibited
Effect against inflammatory induced HUVEC injury [7]: significant protective effects
